Test system: MV-4-11 cells
Assay: Gene expression microarray analysis (Affymetrix PrimeView) and GSEA
Assay type: cell-based, human
Set-up: RFU PODN (11730768_x_at) / Fold change /veh PODN (11730768_x_at) / RFU LINC00158 (11744669_a_at) / Fold change /veh LINC00158 (11744669_a_at) / RFU DUSP10 (11751237_a_at) / Fold change /veh DUSP10 (11751237_a_at) / RFU ID3 (11757404_x_at) / Fold change /veh ID3 (11757404_x_at) / RFU PLEKHG5 (11737974_s_at) / Fold change /veh PLEKHG5 (11737974_s_at) / RFU LRRC4B (11730491_at) / Fold change /veh LRRC4B (11730491_at) / RFU GIMAP4 (11747438_a_at) / Fold change /veh GIMAP4 (11747438_a_at) / RFU KRT8 (11758183_x_at) / Fold change /veh KRT8 (11758183_x_at) / RFU CNN1 (11734310_a_at) / Fold change /veh CNN1 (11734310_a_at) / RFU VPS37D (11726825_at) / Fold change /veh VPS37D (11726825_at) / RFU C10orf10 (11716522_x_at) / Fold change /veh C10orf10 (11716522_x_at) / RFU KIR2DL2 /// KIR2DL4 /// KIR2DL5A /// KIR2DL5B /// KIR2DS1 /// KIR2DS2 /// KIR2DS3 /// KIR2DS4 /// KIR3DL3 /// KIR3DL3 /// KIR3DS1 (11738374_at) / Fold change /veh KIR2DL2 /// KIR2DL4 /// KIR2DL5A /// KIR2DL5B /// KIR2DS1 /// KIR2DS2 /// KIR2DS3 /// KIR2DS4 /// KIR3DL3 /// KIR3DL3 /// KIR3DS1 (11738374_at) / RFU C1QL1 (11718748_at) / Fold change /veh C1QL1 (11718748_at) / RFU TMPRSS4 (11747572_a_at) / Fold change /veh TMPRSS4 (11747572_a_at) / RFU HAMP (11756126_x_at) / Fold change /veh HAMP (11756126_x_at) / RFU RNFT2 (11725882_a_at) / Fold change /veh RNFT2 (11725882_a_at) / RFU NR4A2 (11747474_a_at) / Fold change /veh NR4A2 (11747474_a_at) / RFU ABCC12 (11746883_a_at) / Fold change /veh ABCC12 (11746883_a_at) / RFU TMEM136 (11760407_x_at) / Fold change /veh TMEM136 (11760407_x_at) / RFU CLDN22 /// WWC2 (11732394_at) / Fold change /veh CLDN22 /// WWC2 (11732394_at) / RFU HLA-DPB1 (11760878_x_at) / Fold change /veh HLA-DPB1 (11760878_x_at) / RFU SPINT1 (11716480_a_at) / Fold change /veh SPINT1 (11716480_a_at) / RFU GAP43 (11754022_s_at) / Fold change /veh GAP43 (11754022_s_at) / RFU A4GNT (11735810_at) / Fold change /veh A4GNT (11735810_at) / RFU PRB3 (11715151_x_at) / Fold change /veh PRB3 (11715151_x_at) / RFU TUBB4B (11761932_at) / Fold change /veh TUBB4B (11761932_at) / RFU CAPN14 (11732068_a_at) / Fold change /veh CAPN14 (11732068_a_at) / RFU TMCC2 (11721928_a_at) / Fold change /veh TMCC2 (11721928_a_at) / RFU IRGQ (11745062_a_at) / Fold change /veh IRGQ (11745062_a_at) / RFU FAM174B (11720279_a_at) / Fold change /veh FAM174B (11720279_a_at) / RFU TMPRSS4 (11748680_a_at) / Fold change /veh TMPRSS4 (11748680_a_at) / RFU FAM212B (11763350_a_at) / Fold change /veh FAM212B (11763350_a_at) / RFU PLEKHG5 (11743358_a_at) / Fold change /veh PLEKHG5 (11743358_a_at) / RFU ZSCAN30 (11745921_a_at) / Fold change /veh ZSCAN30 (11745921_a_at) / RFU CMKLR1 (11741424_a_at) / Fold change /veh CMKLR1 (11741424_a_at) / RFU LOC101060620 /// MAPK8IP1 (11723275_at) / Fold change /veh LOC101060620 /// MAPK8IP1 (11723275_at) / RFU SPTSSB (11747773_x_at) / Fold change /veh SPTSSB (11747773_x_at) / RFU PRSS12 (11739890_at) / Fold change /veh PRSS12 (11739890_at) / RFU BIN1 (11741810_x_at) / Fold change /veh BIN1 (11741810_x_at) / RFU WNT11 (11732464_a_at) / Fold change /veh WNT11 (11732464_a_at) / RFU C10orf10 (11716521_a_at) / Fold change /veh C10orf10 (11716521_a_at) / RFU C5orf56 (11738089_at) / Fold change /veh C5orf56 (11738089_at) / RFU CYB561 (11721691_x_at) / Fold change /veh CYB561 (11721691_x_at) / RFU ANKRD19P (11752326_a_at) / Fold change /veh ANKRD19P (11752326_a_at) / RFU OR2T12 /// OR2T33 /// OR2T8 (11738714_s_at) / Fold change /veh OR2T12 /// OR2T33 /// OR2T8 (11738714_s_at) / RFU VCAN (11748164_a_at) / Fold change /veh VCAN (11748164_a_at) / RFU JSRP1 (11732532_at) / Fold change /veh JSRP1 (11732532_at) / RFU KRTAP10-11 (11738290_x_at) / Fold change /veh KRTAP10-11 (11738290_x_at) / RFU MYO3A (11730013_a_at) / Fold change /veh MYO3A (11730013_a_at) / RFU EBF3 (11725865_a_at) / Fold change /veh EBF3 (11725865_a_at) / RFU CAMK2N1 (11719241_x_at) / Fold change /veh CAMK2N1 (11719241_x_at) / RFU C5orf56 (11738088_a_at) / Fold change /veh C5orf56 (11738088_a_at) / RFU OLFML3 (11715873_a_at) / Fold change /veh OLFML3 (11715873_a_at) / RFU LOC100653217 /// NTM (11731650_a_at) / Fold change /veh LOC100653217 /// NTM (11731650_a_at) / RFU MAPK11 (11762145_a_at) / Fold change /veh MAPK11 (11762145_a_at) / RFU FIZ1 (11724087_x_at) / Fold change /veh FIZ1 (11724087_x_at) / RFU OASL (11726364_x_at) / Fold change /veh OASL (11726364_x_at) / RFU SOX15 (11748057_x_at) / Fold change /veh SOX15 (11748057_x_at) / RFU CD79A (11719716_a_at) / Fold change /veh CD79A (11719716_a_at) / RFU HIST1H1D (11736915_at) / Fold change /veh HIST1H1D (11736915_at) / RFU CASKIN2 (11723855_a_at) / Fold change /veh CASKIN2 (11723855_a_at) / RFU LOC730098 (11760151_x_at) / Fold change /veh LOC730098 (11760151_x_at) / RFU OR4N2 (11742367_at) / Fold change /veh OR4N2 (11742367_at) / RFU PRRT2 (11749266_a_at) / Fold change /veh PRRT2 (11749266_a_at) / RFU SNX32 (11753110_a_at) / Fold change /veh SNX32 (11753110_a_at) / RFU CDHR5 (11726645_a_at) / Fold change /veh CDHR5 (11726645_a_at) / RFU RCAN1 (11760418_a_at) / Fold change /veh RCAN1 (11760418_a_at) / RFU FAM167A (11723789_a_at) / Fold change /veh FAM167A (11723789_a_at) / RFU FAM26E (11764081_at) / Fold change /veh FAM26E (11764081_at) / RFU ISYNA1 (11749810_s_at) / Fold change /veh ISYNA1 (11749810_s_at) / RFU ACY1 (11761880_at) / Fold change /veh ACY1 (11761880_at) / RFU 11764098_at / Fold change /veh 11764098_at / RFU SAMD14 (11745864_x_at) / Fold change /veh SAMD14 (11745864_x_at) / RFU NPB (11741838_a_at) / Fold change /veh NPB (11741838_a_at) / RFU TMPRSS6 (11731388_a_at) / Fold change /veh TMPRSS6 (11731388_a_at) / RFU KRTAP10-2 (11738614_at) / Fold change /veh KRTAP10-2 (11738614_at) / RFU ARHGAP8 /// PRR5-ARHGAP8 (11727945_x_at) / Fold change /veh ARHGAP8 /// PRR5-ARHGAP8 (11727945_x_at) / RFU KRTAP5-7 /// NADSYN1 (11734609_at) / Fold change /veh KRTAP5-7 /// NADSYN1 (11734609_at) / RFU RASL12 (11751679_a_at) / Fold change /veh RASL12 (11751679_a_at) / RFU CDKN2B (11736163_a_at) / Fold change /veh CDKN2B (11736163_a_at) / RFU PRF1 (11729649_at) / Fold change /veh PRF1 (11729649_at) / RFU, ZNF638 /// ZNF638-IT1 / Fold change vs veh, ZNF638 /// ZNF638-IT1 / RFU, PANK3 / Fold change vs veh, PANK3 / RFU, SH3YL1 / Fold change vs veh, SH3YL1 / RFU, ZEB2 / Fold change vs veh, ZEB2 / RFU, NRIP1 / Fold change vs veh, NRIP1 / RFU, PTTG1IP / Fold change vs veh, PTTG1IP / RFU, CAPN2 / Fold change vs veh, CAPN2 / RFU, MED14 / Fold change vs veh, MED14 / RFU, SNORA58 / Fold change vs veh, SNORA58 / RFU, C1orf63 / Fold change vs veh, C1orf63 / RFU, LRRFIP1 / Fold change vs veh, LRRFIP1 / RFU, NDUFAF7 / Fold change vs veh, NDUFAF7 / RFU, SLC12A2 / Fold change vs veh, SLC12A2 / RFU, IBTK / Fold change vs veh, IBTK / RFU, ESF1 / Fold change vs veh, ESF1 / Fold change vs veh, TMEM50B / RFU, TAOK1 / Fold change vs veh, TAOK1 / RFU, ACBD3 / Fold change vs veh, ACBD3 / RFU, TMA16 / Fold change vs veh, TMA16 / RFU, RWDD3 / Fold change vs veh, RWDD3 / RFU, BCAT1 / Fold change vs veh, BCAT1 / RFU, EDEM3 / Fold change vs veh, EDEM3 / RFU, TMEM33 / Fold change vs veh, TMEM33 / RFU, WDR75 / Fold change vs veh, WDR75 / RFU, AHCTF1 / Fold change vs veh, AHCTF1 / RFU, TFRC / Fold change vs veh, TFRC / RFU, ZDHHC17 / Fold change vs veh, ZDHHC17 / RFU, NOM1 / Fold change vs veh, NOM1 / RFU, ARL8B / Fold change vs veh, ARL8B / RFU, ZBTB11 / Fold change vs veh, ZBTB11 / RFU, TAMM41 / Fold change vs veh, TAMM41 / RFU, KIAA1704 /// LOC100996395 / Fold change vs veh, KIAA1704 /// LOC100996395 / RFU, ING1 / Fold change vs veh, ING1 / RFU, TRMT61B / Fold change vs veh, TRMT61B / RFU, FUBP3 / Fold change vs veh, FUBP3 / RFU, TP53 / Fold change vs veh, TP53 / RFU, TNKS2 / Fold change vs veh, TNKS2 / RFU, ZFP14 / Fold change vs veh, ZFP14 / RFU, ACTR2 / Fold change vs veh, ACTR2 / RFU, PPP3R1 / Fold change vs veh, PPP3R1 / RFU, PIK3R1 / Fold change vs veh, PIK3R1 / RFU, HNRNPA1 / Fold change vs veh, HNRNPA1 / RFU, RNF170 / Fold change vs veh, RNF170 / RFU, ZNF28 / Fold change vs veh, ZNF28 / RFU, RNGTT / Fold change vs veh, RNGTT / RFU, OGT / Fold change vs veh, OGT / RFU, BRD1 / Fold change vs veh, BRD1 / RFU, MARS / Fold change vs veh, MARS / RFU, ZNF655 / Fold change vs veh, ZNF655 / RFU, FAHD1 / Fold change vs veh, FAHD1 / RFU, BDP1 / Fold change vs veh, BDP1 / RFU, LRRCC1 / Fold change vs veh, LRRCC1 / RFU, ARID1A / Fold change vs veh, ARID1A / RFU, ZNF146 / Fold change vs veh, ZNF146 / RFU, ZNF330 / Fold change vs veh, ZNF330 / RFU, GPN3 / Fold change vs veh, GPN3 / RFU, C9orf123 / Fold change vs veh, C9orf123 / RFU, N4BP2L2 / Fold change vs veh, N4BP2L2 / RFU, ARFIP1 / Fold change vs veh, ARFIP1 / RFU, FAM179B / Fold change vs veh, FAM179B / RFU, BCL10 / Fold change vs veh, BCL10 / RFU, UHRF1BP1L / Fold change vs veh, UHRF1BP1L / RFU, BET1 / Fold change vs veh, BET1 / RFU, CNOT2 / Fold change vs veh, CNOT2 / RFU, ZNF268 / Fold change vs veh, ZNF268 / Fold change vs veh, ZNF507 / RFU, DGCR2 / Fold change vs veh, DGCR2 / RFU, WDSUB1 / Fold change vs veh, WDSUB1 / Fold change vs veh, HSP90B1 /// MIR3652 / RFU, ADSS / Fold change vs veh, ADSS / RFU, GK / Fold change vs veh, GK / RFU, ZNF148 / Fold change vs veh, ZNF148 / RFU, TAF9 / Fold change vs veh, TAF9 / RFU, SLC1A5 / Fold change vs veh, SLC1A5 / RFU, SLMO2 / Fold change vs veh, SLMO2 / RFU, ABCC4 / Fold change vs veh, ABCC4 / RFU, LOC101060439 /// RAP1B / Fold change vs veh, LOC101060439 /// RAP1B / RFU, RFX7 / Fold change vs veh, RFX7 / RFU, GTPBP10 / Fold change vs veh, GTPBP10 / RFU, CNEP1R1 / Fold change vs veh, CNEP1R1 / RFU, BIVM-ERCC5 /// ERCC5 / Fold change vs veh, BIVM-ERCC5 /// ERCC5 / RFU, ILF3 / Fold change vs veh, ILF3 / RFU 11762660_at / Fold change /veh 11762660_at / RFU VCAN (11757783_s_at) / Fold change /veh VCAN (11757783_s_at) / RFU DDX43 (11728927_at) / Fold change /veh DDX43 (11728927_at) / RFU KRT8 (11758188_x_at) / Fold change /veh KRT8 (11758188_x_at) / RFU NKD1 (11759106_at) / Fold change /veh NKD1 (11759106_at) / RFU SRD5A1 (11742802_a_at) / Fold change /veh SRD5A1 (11742802_a_at) / RFU TPSAB1 /// TPSB2 (11721975_s_at) / Fold change /veh TPSAB1 /// TPSB2 (11721975_s_at) / RFU GSTM3 (11746129_a_at) / Fold change /veh GSTM3 (11746129_a_at) / RFU IL23R (11737362_x_at) / Fold change /veh IL23R (11737362_x_at) / RFU TMEM51 (11727254_a_at) / Fold change /veh TMEM51 (11727254_a_at) / RFU PIWIL2 (11732686_x_at) / Fold change /veh PIWIL2 (11732686_x_at) / RFU ORM1 (11744905_x_at) / Fold change /veh ORM1 (11744905_x_at) / RFU CCDC152 (11743942_at) / Fold change /veh CCDC152 (11743942_at) / RFU ECM1 (11717891_a_at) / Fold change /veh ECM1 (11717891_a_at) / RFU IL23R (11748794_a_at) / Fold change /veh IL23R (11748794_a_at) / RFU TNFAIP8L3 (11732012_x_at) / Fold change /veh TNFAIP8L3 (11732012_x_at) / RFU MBOAT4 (11741988_at) / Fold change /veh MBOAT4 (11741988_at) / RFU 11764193_at / Fold change /veh 11764193_at / RFU TMEM53 (11763286_at) / Fold change /veh TMEM53 (11763286_at) / RFU MAGEB2 (11727129_at) / Fold change /veh MAGEB2 (11727129_at) / RFU TMEM200A (11744735_a_at) / Fold change /veh TMEM200A (11744735_a_at) / RFU CCDC152 (11751479_a_at) / Fold change /veh CCDC152 (11751479_a_at) / RFU FAM211A (11726209_a_at) / Fold change /veh FAM211A (11726209_a_at) / RFU RGS16 (11746705_a_at) / Fold change /veh RGS16 (11746705_a_at) / RFU VCAN (11755009_s_at) / Fold change /veh VCAN (11755009_s_at) / RFU RHOB (11743442_s_at) / Fold change /veh RHOB (11743442_s_at) / RFU RGS16 (11720943_a_at) / Fold change /veh RGS16 (11720943_a_at) / RFU RGS16 (11720944_at) / Fold change /veh RGS16 (11720944_at) / RFU, VPS4B / Fold change vs veh, VPS4B / RFU, CREB1 / Fold change vs veh, CREB1 / RFU, DNAJC13 / Fold change vs veh, DNAJC13 / RFU, GNAQ / Fold change vs veh, GNAQ / RFU, CDK5R1 / Fold change vs veh, CDK5R1 / RFU, ZRANB3 / Fold change vs veh, ZRANB3 / RFU, CUL4A / Fold change vs veh, CUL4A / RFU, CCNY / Fold change vs veh, CCNY / RFU, UFL1 / Fold change vs veh, UFL1 / RFU, COG3 / Fold change vs veh, COG3 / RFU, DIAPH2 / Fold change vs veh, DIAPH2 / RFU, SKA2 / Fold change vs veh, SKA2 / RFU, AFF3 / Fold change vs veh, AFF3 / RFU, LMF1 / Fold change vs veh, LMF1 / RFU, IPO11 / Fold change vs veh, IPO11 / RFU, DFFB / Fold change vs veh, DFFB / RFU, FOXP1 / Fold change vs veh, FOXP1 / RFU, CARD8 / Fold change vs veh, CARD8 / RFU, STRN3 / Fold change vs veh, STRN3 / RFU, ADK / Fold change vs veh, ADK / RFU, RASSF2 / Fold change vs veh, RASSF2 / RFU, WIPF1 / Fold change vs veh, WIPF1 / RFU, LARP1B / Fold change vs veh, LARP1B / RFU, RASA1 / Fold change vs veh, RASA1 / RFU, RB1 / Fold change vs veh, RB1 / RFU, PPFIA1 / Fold change vs veh, PPFIA1 / RFU, MAT2A / Fold change vs veh, MAT2A / RFU, CCT5 / Fold change vs veh, CCT5 / RFU, WDR92 / Fold change vs veh, WDR92 / RFU, CUX1 / Fold change vs veh, CUX1 / RFU, TTC7A / Fold change vs veh, TTC7A / RFU, TMEM135 / Fold change vs veh, TMEM135 / RFU, DEPTOR / Fold change vs veh, DEPTOR / RFU, CPM / Fold change vs veh, CPM / RFU, DNAJB6 / Fold change vs veh, DNAJB6 / RFU, CACNA2D3 / Fold change vs veh, CACNA2D3 / RFU, DTX4 / Fold change vs veh, DTX4 / RFU, TFCP2 / Fold change vs veh, TFCP2 / RFU, GMCL1 /// GMCL1P1 / Fold change vs veh, GMCL1 /// GMCL1P1 / RFU, AEBP2 / Fold change vs veh, AEBP2 / RFU, SNHG1 /// SNORD22 /// SNORD25 /// SNORD26 /// SNORD27 /// SNORD28 /// SNORD29 /// SNORD31 / Fold change vs veh, SNHG1 /// SNORD22 /// SNORD25 /// SNORD26 /// SNORD27 /// SNORD28 /// SNORD29 /// SNORD31 / Fold change (Aza/veh), C12orf56 (ProbeSet 11735607_a_at) / Fold change (ACY-1035/veh), C12orf56 (ProbeSet 11735607_a_at) / Fold change (Aza/veh), FGFR1OP (ProbeSet 11751329_s_at) / Fold change (ACY-1035/veh), FGFR1OP (ProbeSet 11751329_s_at) / Fold change (Aza/veh), VPS36 (ProbeSet 11739960_a_at) / Fold change (ACY-1035/veh), VPS36 (ProbeSet 11739960_a_at) / RFU SYPL1 (11715823_x_at) / Fold change /veh SYPL1 (11715823_x_at) / RFU IGFBP7 (11715501_s_at) / Fold change /veh IGFBP7 (11715501_s_at) / RFU REEP3 (11722064_at) / Fold change /veh REEP3 (11722064_at) / RFU IGLL1 (11728026_x_at) / Fold change /veh IGLL1 (11728026_x_at): dose or concentration left out as unconfirmed
Conditions: ProbeSet 11749645_x_at; LIST B

SMILES: Nc1ccc(-c2cccs2)cc1NC(=O)c1ccc2c(c1)cc(C1CC1)n2CCN1CCOCC1 [ACY-1035]
- RFU, ZNF268: 141.54 RFU

From paper PMC5218480 (PLoS ONE, 2017)
